Assays:
THF-ISRE cells = assay: THF luciferase activity, primary (initial) screen in THF-ISRE cells; type: cell-based, human; conditions: inducible luciferase reporter signalling upon IRF3 activation, compounds 50 μM to 0.391 μM, 18 hours, luminescence
Experimental: (§1) STING molecules were screened to determine human STING pathway specificity. THF-ISRE, THF-ISRE STING knock-out (KO), and THF-ISRE TRIF/MAVS KO cell lines contain an inducible luciferase reporter construct that will signal upon IRF3 activation. THF-ISRE STING KO cell line only has the TRIF/MAVS pathway to activate IRF3. THF-ISRE TRIF/MAVS KO cell line uses only the STING pathway for IRF3 activation. Luciferase activity was determined by measuring luminescence.
(§2) The three cell lines were maintained in T-75 flasks with DMEM/High Glucose (Cytiva™, Logan, UT), Pen/Strep/Glutamine (Hyclone™, Logan, UT), and 10% heat inactivated FBS (Hyclone™, Logan, UT).
(§3) For primary screening, THF-ISRE cells were plated at a density of 15,000 cells/well in opaque flat bottom 96-well tissue culture plates. Cells incubated for 36 hours and treated with DMSO (Sigma™, St. Louis, MO) formulated compounds. Before treatment, cell media was changed to 2% FBS in DMEM with antibiotics. Compounds were serially diluted 2-fold, starting at 50 μM and ending at 0.391 μM. Luciferase activity was measured after 18 hours by addition of Steady-Glo Luciferase Assay System (Promega™, Madison, WI) at a 1:1 ratio and luminescence read by plate reader.

human STING pathway = assay: THF luciferase activity, secondary screen in THF-ISRE TRIF/MAVS KO cells (STING only); type: cell-based; conditions: only the STING pathway for IRF3 activation
Experimental: as §1, §2, §3
The secondary screening used the same procedure as above with THF-ISRE STING KO and THF-ISRE TRIF/MAVS KO cells. If the compound was human STING specific, only THF-ISRE TRIF/MAVS KO cells would have luciferase activity.

SMILES | luciferase activity (initial screen) (THF-ISRE cells) | luciferase activity in TRIF/MAVS KO cells (STING pathway use) (human STING pathway)
COc1cccc(F)c1CN1C(=O)CSc2cc(C(=O)NCc3c(F)cc(F)cc3F)ccc21 [INI-3067] | positive luciferase activity | use the STING pathway for luciferase activity
O=C(NCc1c(F)cc(F)cc1F)c1ccc2c(c1)SCC(=O)N2Cc1c(O)cccc1F [INI-3069] | positive luciferase activity | use the STING pathway for luciferase activity
CC1Sc2cc(C(=O)NCc3ccco3)ccc2N(Cc2c(O)cccc2F)C1=O (centres unmarked) [INI-3070] | positive luciferase activity | use the STING pathway for luciferase activity
CC1Sc2cc(C(=O)NCc3c(F)cc(F)cc3F)ccc2N(Cc2c(O)cccc2F)C1=O (centres unmarked) [INI-3071] | positive luciferase activity | use the STING pathway for luciferase activity

— patent publication US20260021107A1, “STIMULATOR OF INTERFERON GENES AGONISTS” (INIMMUNE CORP., priority 2022, published 2026)
